# According to patent US7825294B2 (priority 2006, dated 2010):
# Legend:
# Type in all cases: cell-based
# [1] = tested on: Fusarium graminearum (FGR); settings: standard plate assay, 4,000 spores/mL, ¼× potato dextrose broth, 28° C., 24 to 48 hours
# Diplodia maydis (DMA) = settings: standard plate assay, 6,000 spores/mL, ¼× potato dextrose broth, 28° C., 24 to 48 hours
# [2] = tested on: Colectotricum graminicola (CGR); settings: standard plate assay, 4,000 spores/mL, ¼× Czapec-Dox V8, 28° C., 24 to 48 hours
# [3] = tested on: Fusarium verticillioides (FVE)
Molecule,antifungal activity against FGR [1],antifungal activity against DMA (Diplodia maydis (DMA)),antifungal activity against CGR [2],antifungal activity against FVE [3]
Domain B (SPKKDEHEHCGKHASFNEEKKECVCHDKSEVFEKHHKKCKKAKDEKKKDDKKH; Domain B of SEQ ID NO34),showed antifungal activity to varying extents,,,
Domain C (KKDKHHDHCGKHASYSEEKKECVCHNKAEVFERKHKKCKKHISLR; Domain C of SEQ ID NO34),showed antifungal activity to varying extents,,,
Domain D (SIFNHCGRHAYYDEAKKECICHDAGKDFLKKHKTCACPQGEKWHHIERKCKA; Domain D of SEQ ID NO34),showed antifungal activity to varying extents,,,
"SEQ ID NO:1: antipathogenic polypeptide (52 amino acids) isolated from a fungal fermentation broth extract of Fusarium oxysporum, designated LB-12265 (SILHHCGKHASWDHAKSECVCHDSGKVYTKKHHKCKCPKGEKWHHIEKKCKK; PEPTIDE (1)...(52) Predicted mature LB-12265 peptide; listed as Fusarium oxysporum)",showed antifungal activity,showed antifungal activity,showed antifungal activity,showed antifungal activity
"SEQ ID NO:3: deduced amino acid sequence encoded by a nucleotide sequence from a fungal contaminant, most likely Fusarium, of a proprietary maize EST library (SILHHCGKHASWDHAKSECVCHDSGKVYTKKHHKCKCPKGEKWHHIEKKCKK; Deduced amino acid sequence encoded by SEQ ID NO4 from a fungal contaminant of Zea mays)",,,,has antifungal activity
"SEQ ID NO:11: Q174 protein isolated from Hypocrea lixii (Accession No. CAA64974) (protein, listed as Hypocrea lixii) MLLKQVLVAALLSLSSVTAFPNPNNLHDVEARDVEDNLVARGGSHDCGSYASWNNGKNCCVCKDNGKNYDSKSKSCNCPSGYTWNGHQCVHDCGKDATWQYGNCVCNKKGEVYNPKDKTCSCPPGQYWNGKNCQVDCGKDASYDYKQKKCVCKKHGEIYNSNSKTCSCPPGQVWNGYACVVDCGKEAHFDNKQKKCVCNNYGEIYNSGSKTCACPGGQYFNGKKCVCPYGKVWNGKQCVEDCGKEAHFDYNQKKCVCKNNGEVYNSAKKTCSCPDGQYWNGKQCVCPYGQVFNGKQCVPDCGKEATFDYNQKKCVCKNKGEIYDSKTKTCSCPDGQVWNGKQCVCPYGQVFNGKQCVPDCGKDATYDYNQKKCVCKNKGEVFDQKTKTCSCPDGQYWNGKQCACPYGQIFNGKQCVPDCGKDATYDYNQKKCVCKNKGEVFDQKTKTCSCPDGQYWNGKQCVCPYGKIFDGKQCVEDCGKDAHFDNNQKKCVCNKNGEIYDSKSKTCSCPDSQYWDGSKCACPYGTVWDGKHCNQDCGKDAHFDSNQKKCVCNKQGEVYDSKSKTCSCPDGQYWDGSKCACPYGKVWDGKQCVPNCGKDASYDSKQNKCVCKNIGQVFDTKSLTCSCPAGTSWNGHACVQDCGKDAHYDSNQKCCVCNNKGESYDSKSKTCSCPGNQYWDGNKCACPYGSTWDSSKKTCKMNYP",showed antifungal activity to varying extents,showed antifungal activity to varying extents,showed antifungal activity to varying extents,showed antifungal activity to varying extents
